The results in this text go back to patent US20120115845A1, “THERAPEUTIC AGENTS” (priority 2007, published 2012).

Broadly, the EC50 is the concentration needed to bring the measured effect to its halfway point. One may read the IC50 as the concentration that gives 50% inhibition. Read a high IC50 as weaker potency.

In assay [1] the target is T1, human GHS receptor (Homo sapiens, UniProt Q92847). The experiment in a line: Ghrelin IP1 agonist assay (IP1 HTRF). The format is cell-based. Further details: expressed in transfected cells; host or cells: HEK293s. Particulars: for Emax: 2 h, agonist effect as % maximal effect of GHRP-6 (5 μM), read-out: h IP1 ag %; for EC50: HEK293s cells stably expressing human GHS receptor, 2 hours at 37° C., read-out: h IP1 ag EC50. On the procedure: In HEK293s cells stably expressing human GHS receptor (In-house), agonist activity was assessed by measuring intracellular myo-Inositol 1 phosphate (IP1) using the IP1 HTRF assay kit (Cisbio International).
Cells were harvested using accutase (Sigma), spun down at 1000 rpm for 5 minutes and resuspended in stimulation buffer (as above) containing 0.02% fatty acid free BSA at a density of 1.43E6cells/ml.
Agonist effect of the compound was expressed as % maximal effect of GHRP-6 (5 μM: Bachem). Sigmoidal curves were fitted by Origin 7.5 Client and EC50 values determined.
(In general: Time-resolved FRET reads energy transfer from a long-lived donor to a nearby acceptor.)

In assay [2] the target is T1, human GHS receptor. The experiment in a line: h bind IC50 (binding assay, Table 1). Particulars: human receptor; Table 1.

T1 sequence (Q92847 whole entry): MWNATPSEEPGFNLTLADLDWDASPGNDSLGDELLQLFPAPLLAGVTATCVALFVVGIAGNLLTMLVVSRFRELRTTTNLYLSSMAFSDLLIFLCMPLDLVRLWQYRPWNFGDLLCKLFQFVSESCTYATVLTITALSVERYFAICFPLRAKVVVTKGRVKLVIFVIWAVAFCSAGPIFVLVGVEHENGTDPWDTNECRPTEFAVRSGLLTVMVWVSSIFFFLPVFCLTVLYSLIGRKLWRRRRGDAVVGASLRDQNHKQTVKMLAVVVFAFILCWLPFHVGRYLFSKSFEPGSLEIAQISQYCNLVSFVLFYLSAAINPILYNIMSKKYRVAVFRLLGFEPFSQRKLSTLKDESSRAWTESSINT

Regarding `CS(=O)(=O)c1ccc2nc(NC(=O)NC(=O)c3cc(F)c(F)cc3Cl)sc2c1` [Example 177, 2-Chloro-4,5-difluoro-N-[(6-methylsulfonylbenzothiazol-2-yl)carbamoyl]benzamide], on human GHS receptor [1], the Emax came out at 22.8% and the EC50 came to 0.0664 µM. Also, the IC50 on human GHS receptor [2] amounted to 0.248 µM.

As to `NS(=O)(=O)c1ccc2nc(NC(=O)NC(=O)c3ccccc3Cl)sc2c1` [Example 229, 2-chloro-N-[(6-sulfamoyl-1,3-benzothiazol-2-yl)carbamoyl] benzamide], on human GHS receptor [1], the Emax amounted to 18.2% and the EC50 came out at 0.117 µM. On human GHS receptor [2], this compound gave an IC50 of 1.97 µM.

Take `CS(=O)(=O)c1ccc2nc(NC(=O)NC(=O)c3cc(-n4cccn4)ccc3Cl)sc2c1` [Example 46, 2-Chloro-5-(pyrazol-1-yl)-N-(6-(methylsulfonyl)benzothiazol-2-ylcarbamoyl)benzamide]: at human GHS receptor [1], the Emax came out at 0.5% and the EC50 is 8.24 µM. On human GHS receptor [2], this compound returned an IC50 of 0.012 µM.

For `CCN(CC)C1CCN(c2ccc(Cl)c(C(=O)NC(=O)Nc3nc4ccc(S(C)(=O)=O)cc4s3)c2)C1` (stereo not drawn) [Example 239, 2-chloro-5-(3-(diethylamino)pyrrolidin-1-yl)-N-(6-(methylsulfonyl)benzo[d]thiazol-2-ylcarbamoyl) benzamide], at human GHS receptor [1], the Emax was found to be 0% and the EC50 was ≥ 20 µM. On human GHS receptor [2], the IC50 was found to be 0.15 µM.

For the compound `CC(C)(C)OC(=O)NC1CC(S(=O)(=O)c2ccc3nc(NC(=O)NC(=O)c4ccccc4Cl)sc3c2)C1` (stereo not drawn) [Example 213, tert-Butyl N-[3-[2-[(2-chlorobenzoyl)carbamoylamino]benzothiazol-6-yl]sulfonylcyclobutyl]carbamate], at human GHS receptor [1], the Emax came to 12.9% and the EC50 stood at 0.0125 µM. The IC50 on human GHS receptor [2] is 0.238 µM.

In the case of `CN(C)[C@H]1CCN(c2ccc(Cl)c(C(=O)NC(=O)Nc3nc4ccc(S(C)(=O)=O)cc4s3)c2)C1` [Example 235, (S)-2-chloro-5-(3-(dimethylamino)pyrrolidin-1-yl)-N-(6-(methylsulfonyl)benzo[d]thiazol-2-ylcarbamoyl) benzamide], at human GHS receptor [1], the Emax stood at 19.6% and the EC50 was ≥ 20 µM. On human GHS receptor [2], this compound displayed an IC50 of 0.0227 µM.

Consider `O=C(NC(=O)c1ccccc1Cl)Nc1nc2ccc(S(=O)(=O)CCCN3CCNCC3)cc2s1` [Example 206, 2-Chloro-N-[[6-(3-piperazin-1-ylpropylsulfonyl)benzothiazol-2-yl]carbamoyl]benzamide], for which, at human GHS receptor [1], the Emax was 69% and the EC50 was found to be 0.00958 µM. At human GHS receptor [2], this compound registered an IC50 of 0.0144 µM.

Regarding `CS(=O)(=O)c1ccc2nc(NC(=O)NC(=O)c3ccc(Cl)cc3Cl)sc2c1` [Example 179, 2,4-Dichloro-N-[(6-methylsulfonylbenzothiazol-2-yl)carbamoyl]benzamide], at human GHS receptor [1], the Emax was 61.2% and the EC50 turned out to be 0.00591 µM. This compound also had an IC50 at human GHS receptor [2] of 0.0183 µM.

With `CC(C)CNCCS(=O)(=O)c1ccc2nc(NC(=O)NC(=O)c3ccccc3Cl)sc2c1` [Example 28, 2-Chloro-N-[[6-[2-(2-methylpropylamino)ethylsulfonyl]benzothiazol-2-yl]carbamoyl]benzamide], on human GHS receptor [1], the Emax came to 44.6% and the EC50 came to 0.0337 µM. This compound also yielded an IC50 on human GHS receptor [2] of 0.043 µM.

As to `CN(C)[C@@H]1CCN(c2ccc(Cl)c(C(=O)NC(=O)Nc3nc4ccc(S(C)(=O)=O)cc4s3)c2)C1` [Example 233, (R)-2-chloro-5-(3-(dimethylamino)pyrrolidin-1-yl)-N-(6-(methylsulfonyl)benzo[d]thiazol-2-ylcarbamoyl) benzamide], on human GHS receptor [1], the Emax was determined as 10.4% and the EC50 is ≥ 20 µM. Also, the IC50 at human GHS receptor [2] worked out at 0.0391 µM.

On to `CS(=O)(=O)c1ccc2nc(NC(=O)NC(=O)c3cc(Cl)ccc3Cl)sc2c1` [Example 64, 2,5-Dichloro-N-[(6-methylsulfonylbenzothiazol-2-yl)carbamoyl]benzamide], for which, at human GHS receptor [1], the Emax was 8.74% and the EC50 was 0.019 µM. This compound had an IC50 at human GHS receptor [2] of 0.139 µM.

As to `O=C(NC(=O)c1ccccc1Cl)Nc1nc2ccc(S(=O)(=O)[C@@H]3CCNC3)cc2s1` [Example 172, 2-Chloro-N-[[6-[(3R)-pyrrolidin-3-yl]sulfonylbenzothiazol-2-yl]carbamoyl]benzamide], at human GHS receptor [1], the Emax worked out at 44.4% and the EC50 turned out to be 0.00731 µM. The compound further came in with an IC50 at human GHS receptor [2] of 0.0283 µM.

Take `CN1CCC(S(=O)(=O)c2ccc3nc(NC(=O)NC(=O)c4cc(N5CCOCC5)c(Cl)cc4Cl)sc3c2)CC1` [Example 258, 2,4-dichloro-N-(6-(1-methylpiperidin-4-ylsulfonyl)benzo[d]thiazol-2-ylcarbamoyl)-5-morpholino-benzamide]: on human GHS receptor [1], the Emax turned out to be 2.45% and the EC50 was 3.34 µM. Moreover, the IC50 on human GHS receptor [2] was determined as 0.0105 µM.

For the compound `CS(=O)(=O)c1ccc2nc(NC(=O)NC(=O)c3cc(-c4cncs4)ccc3Cl)sc2c1` [Example 68, 2-chloro-N-(6-(methylsulfonyl)benzothiazol-2-ylcarbamoyl)-5-(thiazol-5-yl)benzamide], on human GHS receptor [1], the Emax was found to be 0% and the EC50 is > 25 µM. Moreover, on human GHS receptor [2], the IC50 came to 0.0441 µM.

Regarding `CC(C)OCCNCCS(=O)(=O)c1ccc2nc(NC(=O)NC(=O)c3ccccc3Cl)sc2c1` [Example 38, 2-Chloro-N-[[6-[2-(2-propan-2-yloxyethylamino)ethylsulfonyl]benzothiazol-2-yl]carbamoyl]benzamide], on human GHS receptor [1], the Emax was found to be 40% and the EC50 was 0.0147 µM. On human GHS receptor [2], the IC50 was determined as 0.179 µM.

On to `O=C(NC(=O)c1ccccc1Cl)Nc1nc2ccc(S(=O)(=O)C3CCN(CC4CC4)CC3)cc2s1` [Example 182, 2-Chloro-N-[[6-[[1-(cyclopropylmethyl)-4-piperidyl]sulfonyl]benzothiazol-2-yl]carbamoyl]benzamide], for which, at human GHS receptor [1], the Emax was 39.6% and the EC50 amounted to 0.0251 µM. This compound registered an IC50 at human GHS receptor [2] of 0.0089 µM.

Turning to `CC(C)N1CCN(CCCS(=O)(=O)c2ccc3nc(NC(=O)NC(=O)c4ccccc4Cl)sc3c2)CC1` [Example 199, 2-Chloro-N-[[6-[3-(4-propan-2-ylpiperazin-1-yl)propylsulfonyl]benzothiazol-2-yl]carbamoyl]benzamide], at human GHS receptor [1], the Emax was determined as 42.2% and the EC50 was 0.00182 µM. The compound also displayed an IC50 at human GHS receptor [2] of 0.0022 µM.

As to `CCN1CC(S(=O)(=O)c2ccc3nc(NC(=O)NC(=O)c4ccccc4Cl)sc3c2)C1` [Example 185, 2-Chloro-N-[[6-(1-ethylazetidin-3-yl)sulfonylbenzothiazol-2-yl]carbamoyl]benzamide], at human GHS receptor [1], the Emax was 39.7% and the EC50 was found to be 0.0692 µM. Moreover, the IC50 on human GHS receptor [2] stood at 0.0669 µM.

With `C#Cc1ccc(Cl)c(C(=O)NC(=O)Nc2nc3ccc(S(C)(=O)=O)cc3s2)c1` [Example 61, 2-Chloro-5-ethynyl-N-(6-(methylsulfonyl)benzothiazol-2-ylcarbamoyl)benzamide], at human GHS receptor [1], the Emax worked out at 0.276% and the EC50 was > 25 µM. This compound also returned an IC50 on human GHS receptor [2] of 0.161 µM.

For `CS(=O)(=O)c1ccc2nc(NC(=O)NC(=O)c3cc(OC4CCCC4)ccc3Cl)sc2c1` [Example 51, 2-Chloro-5-cyclopentyloxy-N-(6-(methylsulfonyl)benzothiazol-2-ylcarbamoyl)benzamide], at human GHS receptor [1], the Emax amounted to 1% and the EC50 was determined as 0.016 µM. Moreover, the 50% inhibitory concentration (IC50) on human GHS receptor [2] stood at 0.0142 µM.

Consider `CS(=O)(=O)c1ccc2nc(NC(=O)NC(=O)c3ccccc3Sc3ccccc3)sc2c1` [Example 133, N-[(6-Methylsulfonylbenzothiazol-2-yl)carbamoyl]-2-phenylsulfanyl-benzamide], for which, on human GHS receptor [1], the Emax turned out to be 41.7% and the EC50 turned out to be 11 µM. The compound also displayed an IC50 on human GHS receptor [2] of 0.0215 µM.

As to `CS(=O)(=O)c1ccc2nc(NC(=O)NC(=O)c3ccccc3I)sc2c1` [Example 118, 2-Iodo-N-[(6-methylsulfonylbenzothiazol-2-yl)carbamoyl]benzamide], at human GHS receptor [1], the Emax was 9.59% and the EC50 was 0.114 µM. This compound came in with an IC50 on human GHS receptor [2] of 0.464 µM.

Take `CN1CCN(CCCS(=O)(=O)c2ccc3nc(NC(=O)NC(=O)c4ccccc4Cl)sc3c2)CC1` [Example 155, 2-Chloro-N-[[6-[3-(4-methylpiperazin-1-yl)propylsulfonyl]benzothiazol-2-yl]carbamoyl]benzamide]: on human GHS receptor [1], the Emax is 55.2% and the EC50 amounted to 0.00225 µM. The same compound returned an IC50 at human GHS receptor [2] of 0.0012 µM.

`CN(C)c1cccc(-c2ccc(Cl)c(C(=O)NC(=O)Nc3nc4ccc(S(C)(=O)=O)cc4s3)c2)n1` [Example 251, 2-chloro-5-(6-(dirnethylamino)pyridin-2-yl)-N-(6-(methylsulfonyl)benzo[d]thiazol-2-ylcarbamoyl) benzamide]: on human GHS receptor [1], the Emax is 0% and the EC50 is ≥ 20 µM. Also, the IC50 on human GHS receptor [2] was determined as 0.0344 µM.

For `CCSc1ccccc1C(=O)NC(=O)Nc1nc2ccc(S(C)(=O)=O)cc2s1` [Example 130, 2-Ethylsulfanyl-N-[(6-methylsulfonylbenzothiazol-2-yl)carbamoyl]benzamide], at human GHS receptor [1], the Emax turned out to be 31.1% and the EC50 came out at 0.668 µM. The same compound registered an IC50 on human GHS receptor [2] of 0.288 µM.

On to `CCN1CCCC(S(=O)(=O)c2ccc3nc(NC(=O)NC(=O)c4ccccc4Cl)sc3c2)C1` (stereo not drawn) [Example 142, 2-Chloro-N-[[6-[(1-ethyl-3-piperidyl)sulfonyl]benzothiazol-2-yl]carbamoyl]benzamide], for which, at human GHS receptor [1], the Emax came to 24.5% and the EC50 stood at 0.0351 µM. At human GHS receptor [2], the IC50 turned out to be 0.851 µM.
